Results from US9308183B2, “Therapy for hyperexcitability disorders” (UCB PHARMA GMBH, priority 2006, dated 2016).
Read-outs that look alike come from different tables or passages of the source.

Assays:
[1] = system: rat hippocampal slice cultures; assay type: cell-based; conditions: for reduction of overall damage: LDH release 24 h after Glut
[2] = system: rat hippocampal slice cultures; assay type: cell-based
[3] = system: Sodium channels in mouse neuroblastoma N1E-115 cells; assay: Sodium current fast and slow inactivation in neuroblastoma cells (holding potential/prepulse protocols); assay type: cell-based; conditions: for current when the holding potential was −60 mV: 10 ms test pulse to 0 mV; for fraction available after 500 ms hyperpolarizing pulse to −100 mV, compared to control values: holding potential −60 mV; for % of channels in the slow inactivated state: held at −80 mV, 10 s to −10 mV, 1.5 s recovery, VEH 27%
[4] = system: TTX-resistant sodium currents in rat dorsal root ganglia; assay: Slow inactivation of TTX-resistant sodium current in dorsal root ganglia; assay type: cell-based; conditions: 100 μM
[5] = system: sodium channels; assay type: cell-based; conditions: 100 μM
[6] = system: voltage-gated Na+ channels; conditions: cited from earlier work
[7] = target: T1, rat type II sodium channel alpha subunit (Nav1.2) (Rattus norvegicus, UniProt P04775); assay: Sodium currents in Xenopus oocytes expressing sodium channel alpha subunits; assay type: cell-based
T1 construct: expressed in transfected cells; host or cells: Xenopus oocytes

[8] = system: 129SVEV mice; assay: Stress-induced hyperthermia (SIH) test, animal model for stress-induced anxiety; assay type: in vivo, mouse
Protocol: The room temperature was maintained between 20 and 23° C. with a relative humidity maintained between 30% and 70%.
On the day prior to testing, the mice were brought to the experimental room one hour before scheduled lights out and singly housed overnight with food and water ad libitum. […] The probe remained inside the animal for approximately 5 seconds or until body temperature reached stability. This temperature was recorded as the baseline rectal temperature (T1). […] Before each insertion, the rectal probe was cleaned with an alcohol pad and lubricated with sterile K-Y jelly.

[9] = system: sodium channels in rat cortical neurons, NIE-115 cells and Xenopus oocytes; assay: Effects upon firing, synaptic transmission and sodium channels in rat cortical neurons, NIE-115 cells and Xenopus oocytes; assay type: cell-based
[10] = 10 μM, 15 mM glutamate for 24 h

T1 sequence (P04775 whole entry): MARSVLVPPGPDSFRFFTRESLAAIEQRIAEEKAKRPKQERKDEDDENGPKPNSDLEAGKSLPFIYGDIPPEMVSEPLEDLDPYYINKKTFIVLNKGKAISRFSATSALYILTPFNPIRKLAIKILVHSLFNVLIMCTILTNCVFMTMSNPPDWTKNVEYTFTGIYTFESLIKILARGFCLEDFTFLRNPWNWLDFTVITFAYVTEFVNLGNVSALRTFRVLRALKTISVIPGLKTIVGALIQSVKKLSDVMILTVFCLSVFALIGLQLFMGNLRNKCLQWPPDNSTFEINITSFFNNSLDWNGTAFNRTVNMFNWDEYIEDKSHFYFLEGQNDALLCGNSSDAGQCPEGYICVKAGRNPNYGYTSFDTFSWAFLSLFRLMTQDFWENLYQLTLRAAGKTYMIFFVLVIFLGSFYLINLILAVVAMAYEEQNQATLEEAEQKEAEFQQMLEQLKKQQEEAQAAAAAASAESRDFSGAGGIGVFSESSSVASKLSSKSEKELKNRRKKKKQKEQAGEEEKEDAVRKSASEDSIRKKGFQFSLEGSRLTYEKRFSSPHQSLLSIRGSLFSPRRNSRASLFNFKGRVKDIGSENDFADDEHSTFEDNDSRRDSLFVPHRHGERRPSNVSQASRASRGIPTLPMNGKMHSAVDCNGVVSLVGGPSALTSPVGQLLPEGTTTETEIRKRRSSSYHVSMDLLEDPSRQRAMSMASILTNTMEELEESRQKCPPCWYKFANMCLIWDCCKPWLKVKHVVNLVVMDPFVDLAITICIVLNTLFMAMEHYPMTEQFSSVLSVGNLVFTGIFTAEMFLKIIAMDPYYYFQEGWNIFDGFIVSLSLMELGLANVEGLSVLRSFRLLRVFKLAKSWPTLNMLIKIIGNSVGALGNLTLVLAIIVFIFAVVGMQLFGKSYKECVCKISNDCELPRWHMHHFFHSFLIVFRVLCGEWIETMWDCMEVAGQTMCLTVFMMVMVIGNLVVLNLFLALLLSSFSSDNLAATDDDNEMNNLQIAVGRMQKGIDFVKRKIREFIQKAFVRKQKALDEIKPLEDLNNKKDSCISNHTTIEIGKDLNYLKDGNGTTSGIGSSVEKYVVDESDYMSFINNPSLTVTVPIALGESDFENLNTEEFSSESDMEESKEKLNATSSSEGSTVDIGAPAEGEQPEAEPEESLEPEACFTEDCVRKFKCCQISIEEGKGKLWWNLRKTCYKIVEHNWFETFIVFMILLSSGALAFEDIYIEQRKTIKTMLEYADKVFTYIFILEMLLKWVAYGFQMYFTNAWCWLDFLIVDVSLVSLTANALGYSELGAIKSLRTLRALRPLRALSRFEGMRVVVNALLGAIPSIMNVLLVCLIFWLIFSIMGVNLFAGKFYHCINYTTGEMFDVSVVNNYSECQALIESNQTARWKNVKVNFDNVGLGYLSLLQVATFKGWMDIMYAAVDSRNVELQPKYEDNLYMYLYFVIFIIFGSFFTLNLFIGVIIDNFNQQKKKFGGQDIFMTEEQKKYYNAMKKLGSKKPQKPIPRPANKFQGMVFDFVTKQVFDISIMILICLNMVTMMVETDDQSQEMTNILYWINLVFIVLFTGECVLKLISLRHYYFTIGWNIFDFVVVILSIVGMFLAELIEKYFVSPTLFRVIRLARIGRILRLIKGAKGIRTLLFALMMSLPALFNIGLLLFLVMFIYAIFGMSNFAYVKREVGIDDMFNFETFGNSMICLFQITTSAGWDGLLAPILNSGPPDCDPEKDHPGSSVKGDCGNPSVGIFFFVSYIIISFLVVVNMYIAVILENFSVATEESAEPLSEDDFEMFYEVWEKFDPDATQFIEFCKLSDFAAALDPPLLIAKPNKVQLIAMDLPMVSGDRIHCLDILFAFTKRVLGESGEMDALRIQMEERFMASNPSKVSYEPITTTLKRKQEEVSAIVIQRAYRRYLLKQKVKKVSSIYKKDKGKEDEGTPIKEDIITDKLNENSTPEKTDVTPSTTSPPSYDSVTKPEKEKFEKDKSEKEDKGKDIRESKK

Question: Which “overall damage (LDH release) 24 h after Glut” value [1] does the source give for `NC1=N[C@H](O)[C@H]2[C@H]3O[C@]4(O)O[C@@H]([C@@H](O)[C@@]2(N1)[C@@H]4O)[C@]3(O)CO` [Tetrodotoxin] here?
Answer: protective effect

Question: What about the “reduction of general damage” value [1] of the same compound?
Answer: 20-40%

Question: What about the “neuronal damage (PI uptake, CA1-CA3) 24 h after Glut” value [2] of the same compound?
Answer: neuroprotective effect

Question: What about the “reduction of neuronal damage” value [2] of the same compound?
Answer: ~50%

Question: Which “overall damage (LDH release) 24 h after Glut” value [1, 10] does the source give for `C[C@]12N[C@H](Cc3ccccc31)c1ccccc12` [MK-801] here?
Answer: significant protection

Question: What about the “reduction of overall damage” value ([1]; 10 μM) of the same compound?
Answer: ~50%

Question: And the “neuronal damage (PI uptake, CA1-CA3) 24 h after Glut” value [2, 10]?
Answer: significant protection

Question: And the “reduction of neuronal damage” value ([2]; 10 μM, PI uptake 24 h after Glut)?
Answer: ~80%

Question: Which “current when the holding potential was −60 mV” value ([3]; 100 μM) does the source give for `NC(=O)N1c2ccccc2C=Cc2ccccc21` [carbamazepine, reference compound] here?
Answer: reduction in current

Question: What about the “fraction available after 500 ms hyperpolarizing pulse to −100 mV, compared to control values” (“fraction available … compared to control values” for short) ([3]; 100 μM) of the same compound?
Answer: 0.94±0.19

Question: For `Nc1nnc(-c2cccc(Cl)c2Cl)c(N)n1` [lamotrigine, reference compound], which “current when the holding potential was −60 mV” value ([3]; 100 μM) is on record?
Answer: reduction in current

Question: What about the “fraction available … compared to control values” ([3]; 100 μM) of the same compound?
Answer: 0.88±0.06

Question: Which results are given for `COC[C@@H](NC(C)=O)C(=O)NCc1ccccc1` [lacosamide, (R)-2-acetamido-N-benzyl-3-methoxy-propionamide]?
Answer: reduction of overall damage ([1]; 1, 10 and 100 μM): 30-40%; slow inactivation of TTX-resistant sodium currents [4]: markedly increased; fraction of sodium channels slowly inactivated by a 10 s depolarizing pulse [5]: significantly increased; half-life for channel recovery ([5]; after 10 s depolarizing pulse): not significantly changed; reduction of Glut-induced necrosis (neuronal damage) [2]: 40-50%; V50 for slow inactivation ([3]; 32 μM and 100 μM): shift of the V50 for slow inactivation to more negative potentials; % of channels in the slow inactivated state ([3]; 32 μM): 37%; conditioning potential of first significant change in channel availability ([3]; 100 μM): −80 mV; reduction of sodium channel availability that resulted from entry into the slow inactivated state ([3]; 100 μM): more than doubled; current when the holding potential was −60 mV ([3]; 100 μM): reduction in current; inhibition after hyperpolarizing prepulse (removal of fast inactivation) ([3]; 100 μM, 500 ms pulse to −100 mV): not altered; % of channels in the slow inactivated state ([3]; 100 μM): 50%; % of channels in the slow inactivated state ([3]; 320 μM): 62%; slow inactivation voltage curves ([3]; concentration dependent): shifted the slow inactivation voltage curves to more hyperpolarized membrane potentials; maximal fraction of current made unavailable by depolarisation ([3]; conditioning potential −10 mV, CONTROL 0.70±0.02): 0.41±0.04; time constant for entry into slow inactivation ([3]; in the presence of the drug, physiological 12.0 s): 4.8 s; fast inactivation gating of voltage-gated Na+ channels [6]: does not exert its effects on neuronal excitability by affecting fast inactivation gating; slow inactivation voltage curve ([7]; 100 μM, Xenopus oocytes, Nav1.2): pronounced shift; inhibition of sodium currents ([7]; oocyte expression system): rapid and profoundly voltage dependent inhibition; effect on SIH compared to saline ([8]; 3 mg/kg i.p. 60 min prior to testing): significantly attenuated; effect on SIH compared to saline ([8]; 10 mg/kg i.p. 60 min prior to testing): significantly attenuated; effect on SIH compared to saline ([8]; 30 mg/kg i.p. 60 min prior to testing): No significant effects; frequency of miniature excitatory post-synaptic potentials [9]: not reduced; prolonged sustained repetitive firing on action potentials [9]: inhibits; rate of sodium channel fast inactivation [9]: does not change; resting conductances [9]: no effect; slow prolonged bursting in cortical neurons [9]: inhibits; steady state fast inactivation voltage curves [9]: does not shift; sustained repetitive firing [9]: did not block; synaptic transmission under normal physiologic conditions [9]: did not modulate; action potential firing evoked by brief depolarising steps or ramps ([9]; initial studies): very limited effect; rate of synaptic traffic in cultured neurons ([9]; stereoselective and concentration dependent): attenuates

Question: For `CC(C)C[C@H](CN)CC(=O)O` [pregabalin, reference compound], which “effect on SIH compared to saline” value ([8]; mouse, in vivo, ip) is on record?
Answer: No significant effects

Question: Which “current when the holding potential was −60 mV” value ([3]; 100 μM) does the source give for `O=C1NC(=O)C(c2ccccc2)(c2ccccc2)N1` [phenytoin, reference compound] here?
Answer: reduction in current

Question: What about the “fraction available … compared to control values” ([3]; 100 μM) of the same compound?
Answer: 0.99±0.05
